The results in this text go back to US7087635B2, “3-substituted oxindole β3 agonists” (Eli Lilly and Company, priority 2001, dated 2006).

T1 sequence (P13945 whole entry): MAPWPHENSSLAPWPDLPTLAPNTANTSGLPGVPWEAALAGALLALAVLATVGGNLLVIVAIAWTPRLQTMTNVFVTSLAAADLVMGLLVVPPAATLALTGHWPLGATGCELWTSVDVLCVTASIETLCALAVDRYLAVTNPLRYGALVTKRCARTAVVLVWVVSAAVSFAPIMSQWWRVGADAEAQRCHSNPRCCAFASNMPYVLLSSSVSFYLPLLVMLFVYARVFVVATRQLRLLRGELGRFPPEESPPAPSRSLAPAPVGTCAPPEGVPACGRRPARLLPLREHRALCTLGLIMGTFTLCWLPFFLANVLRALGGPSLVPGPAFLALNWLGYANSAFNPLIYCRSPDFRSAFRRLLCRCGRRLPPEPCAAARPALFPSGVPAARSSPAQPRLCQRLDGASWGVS

This test addresses T1, human β3 adrenergic receptor (Homo sapiens, UniProt P13945).
T1 construct: expressed in transfected cells; host or cells: DXB-11 Chinese hamster ovary (CHO) cell line, stably transfected, phd expression vector
Put plainly: whole cell receptor coupled c-AMP assay (Emax relative to isoproterenol). The following applies: % intrinsic activity relative to isoproterenol maximal response; transfected CHO cells. The test is classed as cell-based. The text has this:
The genes encoding the human β1-adrenergic receptor (Frielle et al., Proc. Natl. Acad. Sci., 84:7920–7924, 1987), the human β2-adrenergic receptor (Kobika el al., Proc. Natl. Acad. Sci., 84:46–50, 1987, Emorine et al., Proc. Natl. Acad. Sci., 84:6995–6999, 1987) and the human β3 adrenergic receptor (Granneman et al., Molecular Pharmacology, 44(2):264–70, 1993) are individually subcloned into a phd expression vector (Grinnell et al., Bio/Technology, 5:1189–1192, 1987) and transfected into the DXB-11 Chinese hamster ovary (CHO) cell line by calcium phosphate precipitation methodology. The stably transfected cells are grown to 95% confluency in 95% Dulbecco's modified Eagles Medium (DMEM), 5% fetal bovine serum and 0.01% proline. Media is removed and the cells are washed with phosphate buffered (pH 7.4) saline (without magnesium and calcium). Cells are then lifted using an enzyme free cell dissociation solution (Specialty Media, Lavallette, N.J.) and pelleted by centrifugation.
Cells from each of the above cell lines are resuspended and added (20,000/well) to a 96-well plate. Cells are incubated at 37° C. with representative compounds of the invention for 20 minutes in buffer (Hank's balanced salt solution, 10 mM HEPES, 0.1% BSA, 1 mM L-ascorbic acid, 0.2% dimethyl sulfoxide, 1 mM 3-isobutyl-1-methylxanthine, pH 7.4). After halting the incubation with quench buffer (50 mM Na Acetate, 0.25% Triton X-100, pH 5.8), the c-AMP level is quantified by scintillation proximity assay (SPA) using a modification of the commercially available c-AMP kit (Amersham, Arlington Heights, Ill.) with rabbit anti-cAMP antibody (ICN Biomedicals, Aurora, Ohio) for the kit.
Sigmoidal dose response curves, from the whole cell receptor coupled c-AMP assay are fit to a four parameter logistic equation using non linear regression: y=(a–d)/(1+(Dose/c)^b)+d where a and d are responses at zero and maximal dose, b is the slope factor and c is the EC50 as previously described (DeLean et al., Am. J. Physiol., 235, E97–E102, 1978). EC50 is assessed as the concentration producing 50% of the maximum response to each agonist.
Isoproterenol is accepted in the art as a non-selective β3 agonist and is widely used as a comparator in evaluating the activity of compounds. See Trends in Pharm. Sci., 15:3, 1994. The % intrinsic activity (Emax) of representative compounds of the invention is assessed relative to isoproterenol by the compound's maximal response divided by the isoproterenol maximal response times 100.
In turn, `CC(C)(Cc1c[nH]c2c(CCc3ccc(S(N)(=O)=O)cc3)cccc12)NC[C@H](O)COc1cccc2c1C1(CCCC1)C(=O)N2` [Example 84] displayed an Emax of 78.5%.

`CC(C)(Cc1c[nH]c2cccc(C(=O)O)c12)NC[C@H](O)COc1cccc2c1C1(CCCC1)C(=O)N2` [Example 69]: the Emax was 37.9%.

Molecule `CC(C)(Cc1c[nH]c2c(-c3ccc(C(=O)O)s3)cccc12)NC[C@H](O)COc1cccc2c1C1(CCCC1)C(=O)N2` [Example 79] displayed a maximal effect (Emax) of 75.1%.

Turning to `CC(C)(Cc1c[nH]c2c(CCC(=O)O)cccc12)NC[C@H](O)COc1cccc2c1C1(CCCC1)C(=O)N2` [Example 80], the Emax is 77.2%.

For `CC(C)(Cc1c[nH]c2cc(CCc3nnn[nH]3)ccc12)NC[C@H](O)COc1cccc2c1C1(CCCC1)C(=O)N2` [Example 82], the maximal response (Emax) was 72.7%.

On to `CC(C)(Cc1c[nH]c2c(Oc3ccc(C(=O)O)cn3)cccc12)NC[C@H](O)COc1cccc2c1C1(CCCC1)C(=O)N2` [Example 73], for which the Emax is 82.4%.

In the case of `CC(C)(Cc1c[nH]c2cccc(C(N)=O)c12)NC[C@H](O)COc1cccc2c1C1(CCCC1)C(=O)N2` [Example 85], the maximum response (Emax) turned out to be 48.3%.

On to `CC(C)(Cc1c[nH]c2c(C(=O)O)cccc12)NC[C@H](O)COc1cccc2c1C1(CCCC1)C(=O)N2` [Example 71], for which the Emax is 59.5%.

Turning to `CC(C)(Cc1c[nH]c2c(CCc3cnccn3)cccc12)NC[C@H](O)COc1cccc2c1C1(CCCC1)C(=O)N2` [Example 83], the Emax came out at 79.3%.

`CC(C)(Cc1c[nH]c2ccc(C(=O)O)cc12)NC[C@H](O)COc1cccc2c1C1(CCCC1)C(=O)N2` [Example 70] had an Emax of 53.5%.

For `CC(C)(Cc1c[nH]c2c(-c3cccc(C(=O)O)c3)cccc12)NC[C@H](O)COc1cccc2c1C1(CCCC1)C(=O)N2` [Example 78], the Emax was 93.5%.

`CC(C)(Cc1c[nH]c2c(CCc3nnn[nH]3)cccc12)NC[C@H](O)COc1cccc2c1C1(CCCC1)C(=O)N2` [Example 81] yielded an Emax of 77.4%.

The molecule `CC(C)(Cc1c[nH]c2c(Oc3ccc(C(N)=O)cn3)cccc12)NC[C@H](O)COc1cccc2c1C1(CCCC1)C(=O)N2` [Example 75] showed an Emax of 80.1%.

On to `CC(C)(Cc1c[nH]c2cc(C(=O)O)ccc12)NC[C@H](O)COc1cccc2c1C1(CCCC1)C(=O)N2` [Example 72], for which the Emax amounted to 56.2%.

In the case of `C[C@H](Cn1ccc2c(OCC(=O)O)cccc21)NC[C@H](O)COc1cccc2c1C1(CCCC1)C(=O)N2` [Example 68], the Emax was determined as 73.3%.

`CC(C)(Cc1c[nH]c2c(OCC3=NCCS3)cccc12)NC[C@H](O)COc1cccc2c1C1(CCCC1)C(=O)N2` [Example 66] displayed an Emax of 84.9%.

Molecule `CC(C)(Cc1c[nH]c2c(Oc3ncccc3-c3nn[nH]n3)cccc12)NC[C@H](O)COc1cccc2c1C1(CCCC1)C(=O)N2` [Example 76] yielded an Emax of 80.1%.

As for `CC(C)(Cc1c[nH]c2c(Oc3ccc(-c4nn[nH]n4)cn3)cccc12)NC[C@H](O)COc1cccc2c1C1(CCCC1)C(=O)N2` [Example 74], the maximal effect (Emax) came out at 78.1%.
